Assay results from patent publication US12461089B2, “Olfactory receptor involved in the perception of musk fragrance and the use thereof” (ChemoSensoryX Biosciences SA, priority 2017, dated 2025).
Residue numbers refer to the chain shown, from its start. Read-outs that look alike come from different tables or passages of the source.

What was measured:
Assay type in all cases: cell-based
OR5A2_variant 2 = target: T1, OR5A2_variant 2 (Homo sapiens, UniProt Q8NGI9, P172L); test: Luciferase reporter concentration-response analysis on haplotype OR5A2_variant 2 (P172L); details: CRE-luciferase; empty vector pEFIBRHO as control
T1 construct: (P172L, OR5A2_variant 2); expressed in transfected cells; host or cells: HEK293T-RTP1A1/RTP2
T1 sequence (Q8NGI9 1-324 P172L): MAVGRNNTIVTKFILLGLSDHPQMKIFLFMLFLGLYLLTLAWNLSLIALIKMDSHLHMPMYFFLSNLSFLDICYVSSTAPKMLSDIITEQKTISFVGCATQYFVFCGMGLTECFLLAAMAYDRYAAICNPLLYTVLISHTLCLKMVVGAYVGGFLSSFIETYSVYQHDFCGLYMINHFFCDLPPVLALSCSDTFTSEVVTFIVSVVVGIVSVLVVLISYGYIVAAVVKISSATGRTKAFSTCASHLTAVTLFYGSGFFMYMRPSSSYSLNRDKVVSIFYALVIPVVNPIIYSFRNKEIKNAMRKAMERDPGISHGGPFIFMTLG
Method: (§1) HEK293T-RTP1A1/RTP2 cells were maintained in minimal essential medium (EMEM, Lonza) containing 10% fetal bovine serum (M10). These cells were generated by transfecting HEK293T with an expression vector containing the sequences of the chaperone proteins RTP1A1 and RTP2 and a resistance gene to puromycin, using Lipofectamine 2000.
(§2) Odorant molecules were diluted at a concentration of 1 mole/liter (M) into dimethyl sulfoxide (DMSO) to generate stock solutions.
(§3) For concentration-response analysis, serial dilutions of the tested molecules were prepared from stock solutions in EMEM plated into 96-well plates.
(§4) For the initial deorphanisation screening and dose-response analysis, a Luciferase-based gene reporter assay (Promega, Leiden, The Nederlands) was used. Briefly, cells were platted on Poly-D-lysine-coated 96-well and transfected with a plasmid containing the CRE-luciferase and a plasmid containing the olfactory receptor. Sixteen hours after transfection, the culture medium was replaced by serum-free EMEM containing the tested compounds at a determined concentration. After four hours of incubation at 37° C. degree, cells were lysed and processed for luminescence measurement. Luminescene emission was recorded. Results were expressed as luciferase activity (Relative […] Unit (RLU)) or as percentage of the response induced by 10 μM of the adenylate cyclase activator Forskolin. An empty plasmid is used as negative control.
OR genes are highly variable, with many alleles resulting in differences in smell perception from person to person. These differences can be attributed to genetic variations like, for example, nucleotide polymorphisms. […] Amino acids alignment of the 2 haplotypes are represented in FIG. 4.
To test if the substitution could impact the musk sensitivity, luciferase assays were performed as described previously after transfection of both OR5A2 variants. Cells were treated with semi-logarithmic serial dilutions of musk compounds from the four structurally different groups described earlier. In each experiment, an empty vector was used as negative control (pEFIBRHO).

OR2A5 = target: T2, OR2A5 (Homo sapiens, UniProt Q96R48, A202S/A255T/I126V); test: Luciferase reporter concentration-response analysis on OR2A5; details: CRE-luciferase
T2 construct: expressed in transfected cells; host or cells: HEK293T-RTP1A1/RTP2
T2 sequence (Q96R48 1-311 I126V/A202S/A255T): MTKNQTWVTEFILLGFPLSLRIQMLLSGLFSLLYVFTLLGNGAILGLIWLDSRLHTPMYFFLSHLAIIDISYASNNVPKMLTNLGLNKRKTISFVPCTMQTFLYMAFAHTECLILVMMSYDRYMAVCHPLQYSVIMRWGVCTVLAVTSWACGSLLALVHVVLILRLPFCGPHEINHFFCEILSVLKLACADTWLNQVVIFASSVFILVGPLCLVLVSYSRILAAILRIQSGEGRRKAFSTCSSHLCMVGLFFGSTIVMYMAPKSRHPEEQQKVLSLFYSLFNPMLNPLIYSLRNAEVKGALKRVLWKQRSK
Method: (§5) HEK293T-RTP1A1/RTP2 cells were maintained in minimal essential medium (EMEM, Lonza) containing 10% fetal bovine serum (M10). These cells were generated by transfecting HEK293T with an expression vector containing the sequences of the chaperone proteins RTP1A1 and RTP2 and a resistance gene to puromycin, using Lipofectamine 2000. The recombinant cell population, used in these experiments, was selected by adding 10 μg/ml of puromycin into the culture medium and subsequently subcloned (WO 2014/191047 A1).
as §2, §3, §4
In 1998, Krautwurst and collaborators have provided a model system for the study of ligand specificity and structure-function relationships for olfactory receptors (Krautwurst et al., 1998 Cell 95, 917-26). […] Based on their publication, a chimeric OR5A2_variant 1 olfactory receptor was created containing the TM2-TM7 amino acid sequence of OR5A2_variant 1 flanked by the N-teminal and C-terminal sequence of the olfactory receptor OR2A5 (cf. SEQ ID NO: 12). This chimeric OR5A2_variant 1 receptor shared 86 percent identity with the native OR5A2_variant 1 receptor (FIG. 6A and SEQ ID NO: 10).
(§6) To test if the amino acids substitution could impact the musk sensitivity, and specificity and to validate the Krautwurst's model, luciferase assays were performed as described previously after transfection of the chimeric OR5A2_variant 1. Cells were treated with semi-logarithmic serial dilutions of musk compounds from the four structurally different groups described earlier.

OR5A2_variant 1 [1] = target: T3, OR5A2_variant 1 (Homo sapiens, UniProt Q8NGI9); test: Luciferase reporter concentration-response analysis on OR5A2_variant 1; details: for activation of OR5A2 (OR5A2_variant 1), concentration-response: CRE-luciferase, semi-logarithmic serial dilutions, empty vector pEFIBRHO as control
T3 construct: expressed in transfected cells; host or cells: HEK293T-RTP1A1/RTP2
T3 sequence (Q8NGI9 1-324): T1 sequence (Q8NGI9 1-324 P172L) with L172P
Method: as §1, §2, §3, §4
(§7) 35 musk compounds from the four structurally different chemical groups previously described were tested in concentration-response analyses (Table 2). In each experiment, an empty vector was used as negative control (pEFIBRHO). […] Full results including the calculated EC50 are given in Table 2; “non active” represent negative experiments, no activation after testing.

OR5A2_variant 1 [2] = target: T3, OR5A2_variant 1; test: Luciferase reporter deorphanisation screening of odorant libraries (891 compounds) on OR5A2; details: HEK293T-RTP1A1/RTP2 cells; each compound at 1 mM, 316 μM, 100 μM; hit = luciferase activity >= median + 2 standard deviations
Method: as §1, §2
For screening experiments, stock solutions of odorant molecules were diluted in EMEM disposed in 96-well plates.
as §4

chimeric OR5A2_variant 1 = target: T4, chimeric OR5A2_variant 1 (Homo sapiens, UniProt Q8NGI9, F293L/H55R/I289L/M58T); test: Luciferase reporter concentration-response analysis on chimeric OR5A2_variant 1; details: CRE-luciferase; empty vector pEFIBRHO as control
T4 construct: expressed in transfected cells; host or cells: HEK293T-RTP1A1/RTP2
T4 sequence (Q8NGI9 with tags, fused parts or gaps H55R/M58T/I289L/F293L): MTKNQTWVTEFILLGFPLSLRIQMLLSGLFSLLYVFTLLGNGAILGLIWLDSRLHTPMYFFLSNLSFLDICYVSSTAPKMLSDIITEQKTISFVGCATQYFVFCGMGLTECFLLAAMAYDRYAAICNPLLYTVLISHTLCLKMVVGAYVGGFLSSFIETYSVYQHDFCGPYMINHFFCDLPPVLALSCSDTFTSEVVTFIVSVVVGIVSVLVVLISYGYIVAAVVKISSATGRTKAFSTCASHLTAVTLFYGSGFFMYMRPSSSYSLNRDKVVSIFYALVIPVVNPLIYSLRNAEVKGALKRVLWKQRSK
Method: as §1, §2, §3, §4, §6
In each experiment, an empty vector was used as negative control (pEFIBRHO).

OR11A1 = target: T5, OR11A1 (Homo sapiens, UniProt Q9GZK7); test: Luciferase reporter concentration-response analysis on OR11A1; details: concentration-response analysis, luciferase reporter; values given as negative (log) numbers; Non Active = no activation after testing; read-out: calculated EC50, OR11A1 (converted)
T5 construct: expressed in transfected cells; host or cells: HEK293T-RTP1A1/RTP2
T5 sequence (Q9GZK7 1-315): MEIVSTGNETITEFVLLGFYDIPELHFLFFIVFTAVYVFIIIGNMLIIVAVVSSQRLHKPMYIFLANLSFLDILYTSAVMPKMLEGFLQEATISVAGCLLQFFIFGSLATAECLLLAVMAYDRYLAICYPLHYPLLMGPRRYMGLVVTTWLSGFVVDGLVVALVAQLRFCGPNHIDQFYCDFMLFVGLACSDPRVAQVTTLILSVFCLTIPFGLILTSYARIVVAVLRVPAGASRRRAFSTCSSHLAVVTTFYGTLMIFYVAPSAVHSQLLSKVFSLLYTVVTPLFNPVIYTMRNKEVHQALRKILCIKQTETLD
Method: as §1, §2, §3, §4, §7
These compounds were tested in concentration-response analysis in luciferase assays, as described previously. In each experiment, an empty vector was used as negative control (pEFIBRHO).

OR5AN1 = target: T6, OR5AN1 (Homo sapiens, UniProt Q8NGI8, E89G); test: Luciferase reporter concentration-response analysis on OR5AN1; details: concentration-response analysis, luciferase reporter; values given as negative (log) numbers; Non Active = no activation after testing; read-out: calculated EC50, OR5AN1 (converted)
T6 construct: expressed in transfected cells; host or cells: HEK293T-RTP1A1/RTP2
T6 sequence (Q8NGI8 1-311 E89G): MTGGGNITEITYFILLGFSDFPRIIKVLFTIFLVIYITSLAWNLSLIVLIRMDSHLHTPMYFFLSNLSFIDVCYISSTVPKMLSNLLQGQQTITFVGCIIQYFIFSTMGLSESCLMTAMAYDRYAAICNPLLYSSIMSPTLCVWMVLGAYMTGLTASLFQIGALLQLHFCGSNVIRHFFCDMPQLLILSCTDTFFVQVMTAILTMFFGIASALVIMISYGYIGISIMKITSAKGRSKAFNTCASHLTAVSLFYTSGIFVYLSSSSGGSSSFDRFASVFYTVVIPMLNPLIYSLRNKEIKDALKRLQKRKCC
Method: as §5, §2, §3, §4
In these analyses we also included ORs previously described as musk-specific receptors OR5AN1 (SEQ ID n° 7) (WO 2015/020158 A1, Shirasu et al. 2014 Neuron 81, 165-78, Sato-Akuhara N et al. 2016 J Neurosci. 36(16), 4482-91) and OR11A1 (SEQ ID n° 8) (WO 2016/201152 A1). […] Therefore, OR5A1 was included in the analyses. 35 musk compounds from the four structurally different chemical groups previously described were tested in concentration-response analyses (Table 2). In each experiment, an empty vector was used as negative control (pEFIBRHO). […] Full results including the calculated EC50 are given in Table 2; “non active” represent negative experiments, no activation after testing. […]

[3] = concentration-response analysis, luciferase reporter, values given as negative (log) numbers, read-out: calculated EC50, OR5A2 (converted)

SMILES: CC(OC(C)(C)COC(=O)C1CC1)C1CCCC(C)(C)C1 (centres unmarked) [Serenolide]
- activation of OR5A2_variant 2 (P172L), concentration-response (OR5A2_variant 2): not activated
- activation of OR2A5, concentration-response (OR2A5): but not the OR2A5
- EC50 (OR5A2_variant 1 [1]): 21.9 µM
- activation of OR5A2 (OR5A2_variant 1), concentration-response (OR5A2_variant 1 [1]): shows dose response curves
- response of the OR of the invention (luciferase activity, hit) in library screening (OR5A2_variant 1 [2]): respond specifically and exclusively
- activation of chimeric OR5A2_variant 1, concentration-response (chimeric OR5A2_variant 1): shows dose response curves

SMILES: C[C@H]1CC(C)(C)C2=C(C[C@@]3(C)O[C@H]3C2)C1(C)C [malaxone]
- response of the OR of the invention (luciferase activity, hit) in library screening (OR5A2_variant 1 [2]): respond specifically and exclusively

SMILES: CC1COCc2cc3c(cc21)C(C)(C)C(C)C3(C)C (centres unmarked) [Galaxolide®]
- activation of OR5A2_variant 2 (P172L), concentration-response (OR5A2_variant 2): not activated
- activation of OR2A5, concentration-response (OR2A5): but not the OR2A5
- activation of OR5A2 (OR5A2_variant 1), concentration-response (OR5A2_variant 1 [1]): shows dose response curves
- activation of chimeric OR5A2_variant 1, concentration-response (chimeric OR5A2_variant 1): shows dose response curves

SMILES: CC1C(C)(C)C2=C(C(=O)CCC2)C1(C)C (centres unmarked) [Cashmeran]
- activation of OR5A2_variant 2 (P172L), concentration-response (OR5A2_variant 2): not activated
- EC50 (OR11A1): 21.4 µM
- activation of OR2A5, concentration-response (OR2A5): but not the OR2A5
- activation of OR5A2 (OR5A2_variant 1), concentration-response (OR5A2_variant 1 [1]): shows dose response curves
- EC50 (OR5A2_variant 1 [1]; [3]): 17.8 µM
- activation of chimeric OR5A2_variant 1, concentration-response (chimeric OR5A2_variant 1): shows dose response curves

SMILES: O=C1CCCCCCCCCCCC(=O)OCCO1 [Ethylene Brassylate]
- EC50 (OR5AN1): 66.1 µM
- EC50 (OR5A2_variant 1 [1]; [3]): 49 µM
- response of the OR of the invention (luciferase activity, hit) in library screening (OR5A2_variant 1 [2]): respond specifically and exclusively
